Measured values published in patent publication US8420144B2, “Kokumi-imparting agent, method of using, and compositions containing same” (Ajinomoto Co., Inc., priority 2005, dated 2013).
Numbered stars: 1 amine (or outer) side, 2 acyl side, 3 side chain; on linkers, the order of the positions; unused ones are H or OH. Square brackets hold non-standard residues; d marks the D form. Ends that are not written are not given here. γGlu = O=C(O)[C@H](CCC(=O)[*:2])N[*:1]; Orn = NCCC[C@H](N)C(=O)O; Abu = CC[C@H](N)C(=O)O

Experiments:
[1] = biological target: T1, human calcium receptor (Homo sapiens, UniProt P41180); test: Calcium receptor activation activity: Ca ion concentration-dependent Cl ionic current in Xenopus laevis oocyte expression system; type: cell-based; details: for calcium receptor activation activity (Ca ion concentration-dependent Cl response current): oocytes voltage-clamped at −70 mV; for Activity (lowest concentration for which current was detected): added at 1000, 300, 100, 30, 10, 3, 1, 0.3 and 0.1 μM
T1 construct: expressed in transfected cells; host or cells: Xenopus laevis oocytes microinjected with cRNA; gene amplified by PCR from human kidney cDNA (Clontech)
T1 sequence (P41180 20-1078): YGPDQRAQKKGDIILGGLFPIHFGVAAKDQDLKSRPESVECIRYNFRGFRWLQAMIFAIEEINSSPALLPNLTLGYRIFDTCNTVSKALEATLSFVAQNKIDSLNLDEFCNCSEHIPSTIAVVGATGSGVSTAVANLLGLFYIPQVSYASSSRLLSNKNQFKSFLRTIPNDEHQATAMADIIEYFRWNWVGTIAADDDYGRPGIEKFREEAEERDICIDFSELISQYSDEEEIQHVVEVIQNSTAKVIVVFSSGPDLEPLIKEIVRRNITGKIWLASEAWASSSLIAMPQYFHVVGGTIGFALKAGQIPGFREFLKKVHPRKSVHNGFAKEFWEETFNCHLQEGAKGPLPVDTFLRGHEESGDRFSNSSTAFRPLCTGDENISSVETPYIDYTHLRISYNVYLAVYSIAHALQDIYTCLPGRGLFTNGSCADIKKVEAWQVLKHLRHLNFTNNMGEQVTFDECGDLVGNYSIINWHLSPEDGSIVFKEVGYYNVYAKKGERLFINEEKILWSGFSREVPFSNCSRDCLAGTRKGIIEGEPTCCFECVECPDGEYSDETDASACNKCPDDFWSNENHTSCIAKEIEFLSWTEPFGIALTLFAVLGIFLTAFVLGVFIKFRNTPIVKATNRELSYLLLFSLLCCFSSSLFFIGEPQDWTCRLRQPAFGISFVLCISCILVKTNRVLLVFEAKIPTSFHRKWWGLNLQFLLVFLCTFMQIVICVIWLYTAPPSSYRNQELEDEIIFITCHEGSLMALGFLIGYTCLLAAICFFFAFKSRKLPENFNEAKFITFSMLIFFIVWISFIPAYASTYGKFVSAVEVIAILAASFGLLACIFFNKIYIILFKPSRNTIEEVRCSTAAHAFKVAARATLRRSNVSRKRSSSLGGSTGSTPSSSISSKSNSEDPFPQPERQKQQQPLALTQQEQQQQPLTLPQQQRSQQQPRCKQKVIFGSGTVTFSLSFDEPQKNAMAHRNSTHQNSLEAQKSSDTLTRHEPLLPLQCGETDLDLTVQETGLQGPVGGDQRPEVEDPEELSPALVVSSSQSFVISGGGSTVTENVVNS
Protocol: To evaluate calcium receptor activation activity, a Ca ion concentration-dependent Cl ionic current measuring method using a Xenopus laevis oocyte expression system was used. If each activator is added to Xenopus laevis oocytes expressing the calcium receptor, intracellular Ca ions increase. Then, the Ca ion concentration-dependent Cl channel opens, and the intracellular current value changes as an ionic current. By measuring the change in this intracellular current value, the presence or absence of calcium receptor activation activity can be determined.
Specifically, the abdomen of Xenopus laevis was opened, and an egg batch was taken out and treated with a 1% collagenase solution at 20° C. for 2 hours to obtain individual oocytes. Into the oocytes, 50 nl of 1 μg/μl receptor cRNA or 50 nl of sterilized water per oocyte was introduced by using a micro glass capillary, and the oocytes were cultured at 18° C. for 2 or 3 days. For the culture, a solution obtained by adding 2 mM pyruvic acid, 10 U/ml of penicillin, and 10 μg/ml of streptomycin to the solution in Example 2 was used. After the culture, a test solution was added to the oocytes containing either the cRNA or sterilized water. Electrophysiological measurement was performed by using an amplifier, Geneclamp500 (Axon), and recording software, AxoScope 9.0 (Axon). The oocytes were voltage-clamped at −70 mV by the double electrode voltage clamp method, and the intracellular current was measured via the Ca ion concentration-dependent Cl ion channel. The maximum value of the intracellular current was considered as the response current value.
Calcium receptor activation activity of L-amino acids was evaluated by using the method described in Example 13. That is, oocytes containing either cRNA of the calcium receptor or sterilized water were prepared, and voltage-clamped at −70 mV by the double electrode voltage clamp method. To the voltage-clamped oocytes, alanine (10 mM), arginine (10 mM), asparagine (10 mM), aspartic acid (10 mM), cysteine (10 mM), glutamine (10 mM), glutamic acid (10 mM), glycine (10 mM), histidine (10 mM), isoleucine (10 mM), leucine (10 mM), lysine (10 mM), methionine (10 mM), phenylalanine (10 mM), proline (10 mM), serine (10 mM), threonine (10 mM), tryptophan (10 mM), tyrosine (10 mM), valine (10 mM), ornithine (10 mM), taurine (10 mM), or hydroxyproline (10 mM) was added, and Ca ion concentration-dependent Cl response current was measured. […] As for the aforementioned amino acids, the activation activity was reported in Proc. Natl. Acad. Sci. USA, 2000 Apr. 25, 97(9):4814-9.
Calcium receptor activation activity of D-cysteine was evaluated by using the method described in Example 13. That is, oocytes containing either cRNA of the calcium receptor or sterilized water were prepared, and voltage-clamped at −70 mV by the double electrode voltage clamp method. To the voltage-clamped oocytes, D-cysteine (10 mM), L-cysteine (10 mM), D-tryptophan (10 mM), or L-tryptophan (10 mM) was added, and Ca ion concentration-dependent Cl response current was measured.
Calcium receptor activation activity of peptides was evaluated by using the method described in Example 13. That is, oocytes containing either cRNA of the calcium receptor or sterilized water were prepared, and voltage-clamped at −70 mV by the double electrode voltage clamp method.
Calcium receptor activation activity of peptides was evaluated in the same manner as that of Example 17. Each of the peptides shown in Table 2 was added to voltage-clamped oocytes at 1000 μM, 300 μM, 100 μM, 30 μM, 10 μM, 3 μM, 1 μM, 0.3 μM, and 0.1 μM, and Ca ion concentration-dependent Cl response current was measured.

[2] = Quantitative sensory evaluation test of kokumi-imparting activity in water with sodium glutamate, inosine monophosphate and sodium chloride; type: in vivo, human; details: control 0, glutathione 3 points
Protocol: Sample solutions that became acidic after dissolution of the samples were adjusted to pH 6.8 to 7.2 with NaOH before use. Sensory evaluation scores were used for evaluation based on the control sample (0 points) and the glutathione sample (3 points), and the test was performed with n=3.
The sample solutions that became acidic after dissolution of the samples were adjusted to pH 6.8 to 7.2 with NaOH before use. Sensory evaluation scores were used for evaluation based on the control sample (0 points) and the glutathione sample (3 points), and the test was performed with n=5.
Sample solutions that became acidic after dissolution of the samples were adjusted to pH 6.8 to 7.2 with NaOH before use. Sensory evaluation scores were used for evaluation based on the control sample (0 points) and the glutathione sample (3 points), and the test was performed with n=12.

With N[C@H](CS)C(=O)O [D-cysteine] the “calcium receptor activation activity (Ca ion concentration-dependent Cl response current)” value (from here on “calcium receptor activation activity”) ([1]; 10 mM amino acid) was “definitive calcium receptor activation activity”.
With N[C@@H](CS)C(=O)O [cysteine, reference compound] the “calcium receptor activation activity” value ([1]; 10 mM amino acid) was “definite calcium receptor activation activity”.
For N[C@@H](Cc1c[nH]cn1)C(=O)O [histidine, reference compound], the “calcium receptor activation activity” value ([1]; 10 mM amino acid) was “definite calcium receptor activation activity”.
In the case of N[C@@H](Cc1ccccc1)C(=O)O [phenylalanine, reference compound], the “calcium receptor activation activity” value ([1]; 10 mM amino acid) is reported as “definite calcium receptor activation activity”.
With N[C@@H](Cc1c[nH]c2ccccc12)C(=O)O [tryptophan, reference compound] the “calcium receptor activation activity” value ([1]; 10 mM amino acid) was “definite calcium receptor activation activity”.
In the case of N[C@@H](Cc1ccc(O)cc1)C(=O)O [tyrosine, reference compound], the “calcium receptor activation activity” value ([1]; 10 mM amino acid) is reported as “definite calcium receptor activation activity”.
In the case of N[C@@H](CCC(=O)N[C@@H](CSN=O)C(=O)NCC(=O)O)C(=O)O [γ-Glu-Cys(SNO)-Gly], the “calcium receptor activation activity” value ([1]; 50 μM peptide) is reported as “definitive calcium receptor activation activity”.
With Asp-Gly the “calcium receptor activation activity” value ([1]; 1 mM peptide) was “definitive calcium receptor activation activity”.
For Cys-Gly, the “calcium receptor activation activity” value ([1]; 1 mM peptide) was “definitive calcium receptor activation activity”.
With Cys-Met the “calcium receptor activation activity” value ([1]; 1 mM peptide) was “definitive calcium receptor activation activity”.
For Glu-Cys, the “calcium receptor activation activity” value ([1]; 50 μM peptide) was “definitive calcium receptor activation activity”.
For Gly-Cys, the “calcium receptor activation activity” value ([1]; 500 μM peptide) was “definitive calcium receptor activation activity”.
With Leu-Asp the “calcium receptor activation activity” value ([1]; 1 mM peptide) was “definitive calcium receptor activation activity”.
With [γGlu]-Ala the “calcium receptor activation activity” value ([1]; 50 μM peptide) was “definitive calcium receptor activation activity”, the “Intensity of kokumi: Aftertaste” value ([2]; Table 5, 0.1 g/dl, n=3) was 0.2 points and the “Intensity of kokumi: First and middle taste” value ([2]; Table 5, 0.1 g/dl, n=3) was 0.5 points.
With [γGlu]-Cys the “calcium receptor activation activity” value ([1]; 50 μM peptide) was “definitive calcium receptor activation activity”, the “Intensity of kokumi: Aftertaste” value ([2]; Table 6, 0.1 g/dl, n=5) was 2.0 points and the “Intensity of kokumi: First and middle taste” value ([2]; Table 6, 0.1 g/dl, n=5) was 2.0 points.
In the case of [γGlu]-Gly, the “calcium receptor activation activity” value ([1]; 500 μM peptide) is reported as “definitive calcium receptor activation activity”.
With [γGlu]-Gly-Gly the “Activity (lowest concentration for which current was detected)” value [1] was 30 µM.
In the case of [γGlu]-Met, the “calcium receptor activation activity” value ([1]; 500 μM peptide) is reported as “definitive calcium receptor activation activity”, the “Intensity of kokumi: Aftertaste” value ([2]; Table 5, 0.1 g/dl, n=3) is reported as 0.4 points and the “Intensity of kokumi: First and middle taste” value ([2]; Table 5, 0.1 g/dl, n=3) is reported as 1.5 points.
In the case of [γGlu]-Ser-Gly, the “Activity (lowest concentration for which current was detected)” value [1] is reported as 30 µM.
In the case of [γGlu]-Thr, the “calcium receptor activation activity” value ([1]; 50 μM peptide) is reported as “definitive calcium receptor activation activity”.
For [γGlu]-Val, the “calcium receptor activation activity” value ([1]; 50 μM peptide) was “definitive calcium receptor activation activity”, the “Intensity of kokumi: Aftertaste” value ([2]; Table 5, 0.1 g/dl, n=3) was 1.0 points and the “Intensity of kokumi: First and middle taste” value ([2]; Table 5, 0.1 g/dl, n=3) was 3.0 points. The “Intensity of kokumi: Aftertaste” value ([2]; Table 6, 0.1 g/dl, n=5) was 1.0 points and the “Intensity of kokumi: First and middle taste” value ([2]; Table 6, 0.1 g/dl, n=5) was 3.0 points.
With [γGlu]-Val-Arg the “Activity (lowest concentration for which current was detected)” value [1] was 1000 µM.
In the case of [γGlu]-Val-Asn, the “Activity (lowest concentration for which current was detected)” value [1] is reported as 30 µM.
In the case of [γGlu]-Val-Cys, the “Activity (lowest concentration for which current was detected)” value [1] is reported as 10 µM.
With [γGlu]-Val-Gln the “Activity (lowest concentration for which current was detected)” value [1] was 10 µM.
For [γGlu]-Val-Glu, the “Activity (lowest concentration for which current was detected)” value [1] was 1000 µM.
With [γGlu]-Val-His the “Activity (lowest concentration for which current was detected)” value [1] was 100 µM.
In the case of [γGlu]-Val-Lys, the “Activity (lowest concentration for which current was detected)” value [1] is reported as 1000 µM.
For [γGlu]-Val-Met, the “Activity (lowest concentration for which current was detected)” value [1] was 1000 µM.
In the case of [γGlu]-Val-Phe, the “Activity (lowest concentration for which current was detected)” value [1] is reported as 30 µM.
In the case of [γGlu]-Val-Pro, the “Activity (lowest concentration for which current was detected)” value [1] is reported as 30 µM.
With [γGlu]-Val-Ser the “Activity (lowest concentration for which current was detected)” value [1] was 30 µM.
In the case of [γGlu]-Val-Thr, the “Activity (lowest concentration for which current was detected)” value [1] is reported as 1000 µM.
For [γGlu]-Val-Val, the “Activity (lowest concentration for which current was detected)” value [1] was 1000 µM.
In the case of [γGlu]-Val-[Orn], the “Activity (lowest concentration for which current was detected)” value [1] is reported as 100 µM.
In the case of [γGlu]-[Abu]-Gly, the “Activity (lowest concentration for which current was detected)” value [1] is reported as 3 µM, the “Intensity of kokumi: Aftertaste” value ([2]; Table 7, 0.01 g/dl, n=12) is reported as 2.0 points and the “Intensity of kokumi: First and middle taste” value ([2]; Table 7, 0.01 g/dl, n=12) is reported as 3.0 points.
In the case of [γGlu]-[γGlu]-Val, the “Activity (lowest concentration for which current was detected)” value [1] is reported as 1000 µM.
In the case of γ-Glu-Cys(S-Me)-Gly, the “Activity (lowest concentration for which current was detected)” value [1] is reported as 3 µM.
For γ-Glu-Cys(S-allyl)-Gly, the “Activity (lowest concentration for which current was detected)” value [1] was 100 µM.
For γ-Glu-Orn, the “calcium receptor activation activity” value ([1]; 500 μM peptide) was “definitive calcium receptor activation activity”.
With γ-Glu-Tau the “Activity (lowest concentration for which current was detected)” value [1] was 300 µM.
In the case of γ-Glu-Val-Asp, the “Activity (lowest concentration for which current was detected)” value [1] is reported as 1000 µM.
With γ-Glu-t-Leu the “Activity (lowest concentration for which current was detected)” value [1] was 100 µM.
